# Results from US10219516B2, “Molecules having pesticidal utility, and intermediates, compositions, and processes, related thereto” (priority 2015, dated 2019).
# Legend:
# Format in all cases: in vivo
# [1] = tested on: Beet Armyworm (Spodoptera exigua, LAPHEG); assay: Bioassay on Beet Armyworm (BAW), 128-well diet tray assay; conditions: Beet Armyworm, 128-well diet tray assay, read-out: BAW rating
# Summary of the method: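 Artificial diet surface-treated with 50 μg/cm^2 test molecule in 90:10 acetone-water, dried, then infested with one to five second instar larvae per well. Held covered and vented at 25° C., 14:10 light-dark for five to seven days; percent mortality recorded per well and averaged over eight wells.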
# [2] = tested on: Yellow Fever Mosquito (Aedes aegypti, AEDSAE); assay: Bioassay on Yellow Fever Mosquito (YFM), 96-well plate larval assay; conditions: Yellow Fever Mosquito, 96-well plate larval assay
# Summary of the method: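 Each well was scored for mortality after 3 days at room temperature under a non-evaporative lid. Test molecules came from DMSO masters (4000 ppm stock) diluted with water/acetone 90:10 and dispensed into six replicate plates, which were then infested with roughly 1-day-old larvae in liver-powder water.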
# [3] = tested on: Cabbage Looper (Trichoplusia ni, TRIPNI); assay: Bioassay on Cabbage Looper (CL), 128-well diet tray assay; conditions: Trichoplusia ni; Cabbage Looper, 128-well diet tray assay; read-out: CL rating
# Summary of the method: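 Second-instar larvae, one to five per well, placed on artificial diet treated with 50 μg/cm^2 test molecule in 90:10 acetone-water, dried before infestation. Held 5–7 days at 25° C, 14:10 light-dark; percent mortality averaged over eight wells.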
SMILES,pest or weed control at 50 µg/cm2 [1] [%],YFM rating [2],pest or weed control at 50 µg/cm2 [3] [%]
"Nc1cccc(NC(=O)c2cc(NC(=O)[C@H]3[C@H](c4cc(Cl)cc(Cl)c4)C3(Cl)Cl)ccc2Cl)c1F [F426, N-(3-Amino-2-fluorophenyl)-2-chloro-5-((1R,3R)-2,2-dichloro-3-(3,5-dichlorophenyl)cyclopropane-1-carboxamido)benzamide]",50 to 100,A (80-100),50 to 100
"Nc1ccc(F)c(NC(=O)c2cc(NC(=O)[C@H]3[C@H](c4cc(Cl)cc(Cl)c4)C3(Cl)Cl)ccc2Cl)c1 [F427, N-(5-Amino-2-fluorophenyl)-2-chloro-5-((1R,3R)-2,2-dichloro-3-(3,5-dichlorophenyl)cyclopropane-1-carboxamido)benzamide]",50 to 100,A (80-100),50 to 100
"Nc1ccc(F)c(NC(=O)c2cc(NC(=O)[C@H]3[C@H](c4ccc(Cl)c(Cl)c4)C3(Cl)Cl)ccc2Cl)c1 [F428, N-(5-Amino-2-fluorophenyl)-2-chloro-5-((1R,3R)-2,2-dichloro-3-(3,4-dichlorophenyl)cyclopropane-1-carboxamido)benzamide]",50 to 100,A (80-100),50 to 100
"Nc1ccc(F)c(NC(=O)c2cc(NC(=O)[C@H]3[C@H](c4cc(Cl)c(Cl)c(Cl)c4)C3(Cl)Cl)ccc2Cl)c1 [F429, N-(5-Amino-2-fluorophenyl)-2-chloro-5-((1R,3R)-2,2-dichloro-3-(3,4,5-trichlorophenyl)cyclopropane-1-carboxamido)benzamide]",50 to 100,A (80-100),50 to 100
"Nc1ccc(F)c(NC(=O)c2cc(NC(=O)[C@H]3[C@H](c4ccc(F)c(Cl)c4)C3(Cl)Cl)ccc2Cl)c1 [F430, N-(5-Amino-2-fluorophenyl)-2-chloro-5-((1R,3R)-2,2-dichloro-3-(3-chloro-4-fluorophenyl)cyclopropane-1-carboxamido)benzamide]",50 to 100,A (80-100),50 to 100
"Nc1cc(F)cc(NC(=O)c2cc(NC(=O)[C@H]3[C@H](c4ccc(Cl)c(Cl)c4)C3(Cl)Cl)ccc2Cl)c1 [F431, N-(3-Amino-5-fluorophenyl)-2-chloro-5-((1R,3R)-2,2-dichloro-3-(3,4-dichlorophenyl)cyclopropane-1-carboxamido)benzamide]",50 to 100,A (80-100),50 to 100
"Nc1cc(F)cc(NC(=O)c2cc(NC(=O)[C@H]3[C@H](c4cc(Cl)c(Cl)c(Cl)c4)C3(Cl)Cl)ccc2Cl)c1 [F432, N-(3-Amino-5-fluorophenyl)-2-chloro-5-((1R,3R)-2,2-dichloro-3-(3,4,5-trichlorophenyl)cyclopropane-1-carboxamido)benzamide]",50 to 100,A (80-100),50 to 100
"Nc1cc(F)cc(NC(=O)c2cc(NC(=O)[C@H]3[C@H](c4ccc(F)c(Cl)c4)C3(Cl)Cl)ccc2Cl)c1 [F433, N-(3-Amino-5-fluorophenyl)-2-chloro-5-((1R,3R)-2,2-dichloro-3-(3-chloro-4-fluorophenyl)cyclopropane-1-carboxamido)benzamide]",50 to 100,A (80-100),50 to 100
"O=C(Nc1ccc2[nH]ccc2c1)c1cc(NC(=O)C2C(c3cc(Cl)cc(Cl)c3)C2(Cl)Cl)ccc1Cl (stereo not drawn) [F435, 2-Chloro-5-(trans)-2,2-dichloro-3-(3,5-dichlorophenyl)cyclopropane-1-carboxamido)-N-(1H-indol-5-yl)benzamide]",50 to 100,A (80-100),50 to 100
"O=C(Nc1ccc2cccnc2c1)c1cc(NC(=O)C2C(c3cc(Cl)cc(Cl)c3)C2(Cl)Cl)ccc1Cl (stereo not drawn) [F436, 2-Chloro-5-(trans)-2,2-dichloro-3-(3,5-dichlorophenyl)cyclopropane-1-carboxamido)-N-(quinolin-7-yl)benzamide]",50 to 100,B (More than 0-Less than 80),50 to 100
"O=C(Nc1cnc2cc[nH]c2c1)c1cc(NC(=O)C2C(c3cc(Cl)cc(Cl)c3)C2(Cl)Cl)ccc1Cl (stereo not drawn) [F437, 2-Chloro-5-(trans)-2,2-dichloro-3-(3,5-dichlorophenyl)cyclopropane-1-carboxamido)-N-(1H-pyrrolo[3,2-b]pyridin-6-yl)benzamide]",50 to 100,B (More than 0-Less than 80),50 to 100
"O=C(Nc1nc2ccccc2s1)c1cc(NC(=O)C2C(c3cc(Cl)cc(Cl)c3)C2(Cl)Cl)ccc1Cl (stereo not drawn) [F441, N-(Benzo[d]thiazol-2-yl)-2-chloro-5-(trans)-2,2-dichloro-3-(3,5-dichlorophenyl)cyclopropane-1-carboxamido)benzamide]",50 to 100,B (More than 0-Less than 80),50 to 100
"O=C(Nc1nc2cc(F)ccc2s1)c1cc(NC(=O)C2C(c3cc(Cl)cc(Cl)c3)C2(Cl)Cl)ccc1Cl (stereo not drawn) [F442, 2-Chloro-5-(trans)-2,2-dichloro-3-(3,5-dichlorophenyl)cyclopropane-1-carboxamido)-N-(5-fluorobenzo[d]thiazol-2-yl)benzamide]",50 to 100,B (More than 0-Less than 80),50 to 100
"O=C(Nc1nc2c(Cl)cccc2s1)c1cc(NC(=O)C2C(c3cc(Cl)cc(Cl)c3)C2(Cl)Cl)ccc1Cl (stereo not drawn) [F443, 2-Chloro-N-(4-chlorobenzo[d]thiazol-2-yl)-5-(trans)-2,2-dichloro-3-(3,5-dichlorophenyl)cyclopropane-1-carboxamido)benzamide]",50 to 100,B (More than 0-Less than 80),50 to 100
"O=C(Nc1nc2ccc(F)cc2s1)c1cc(NC(=O)C2C(c3cc(Cl)cc(Cl)c3)C2(Cl)Cl)ccc1Cl (stereo not drawn) [F445, 2-Chloro-5-(trans)-2,2-dichloro-3-(3,5-dichlorophenyl)cyclopropane-1-carboxamido)-N-(6-fluorobenzo[d]thiazol-2-yl)benzamide]",50 to 100,B (More than 0-Less than 80),50 to 100
"O=C(Nc1nc2ccccc2o1)c1cc(NC(=O)C2C(c3cc(Cl)cc(Cl)c3)C2(Cl)Cl)ccc1Cl (stereo not drawn) [F447, N-(Benzo[d]oxazol-2-yl)-2-chloro-5-(trans)-2,2-dichloro-3-(3,5-dichlorophenyl)cyclopropane-1-carboxamido)benzamide]",50 to 100,A (80-100),50 to 100
"Cn1nc(NC(=O)c2cc(NC(=O)C3C(c4cc(Cl)cc(Cl)c4)C3(Cl)Cl)ccc2Cl)c2c(F)cccc21 (stereo not drawn) [F449, 2-Chloro-5-(trans)-2,2-dichloro-3-(3,5-dichlorophenyl)cyclopropane-1-carboxamido)-N-(4-fluoro-1-methyl-1H-indazol-3-yl)benzamide]",50 to 100,A (80-100),50 to 100
"O=C(Nc1ccc2ncoc2c1)c1cc(NC(=O)C2C(c3cc(Cl)cc(Cl)c3)C2(Cl)Cl)ccc1Cl (stereo not drawn) [F450, N-(Benzo[d]oxazol-6-yl)-2-chloro-5-(trans)-2,2-dichloro-3-(3,5-dichlorophenyl)cyclopropane-1-carboxamido)benzamide]",50 to 100,A (80-100),50 to 100
"O=C(Nc1cc2ocnc2cc1F)c1cc(NC(=O)C2C(c3cc(Cl)cc(Cl)c3)C2(Cl)Cl)ccc1Cl (stereo not drawn) [F453, 2-Chloro-5-(trans)-2,2-dichloro-3-(3,5-dichlorophenyl)cyclopropane-1-carboxamido)-N-(5-fluorobenzo[d]oxazol-6-yl)benzamide]",50 to 100,A (80-100),50 to 100
"Cc1cc2cc(NC(=O)c3cc(NC(=O)C4C(c5cc(Cl)cc(Cl)c5)C4(Cl)Cl)ccc3Cl)ccc2[nH]1 (stereo not drawn) [F454, 2-Chloro-5-(trans)-2,2-dichloro-3-(3,5-dichlorophenyl)cyclopropane-1-carboxamido)-N-(2-methyl-1H-indol-5-yl)benzamide]",50 to 100,A (80-100),50 to 100
"Cc1nc2cc(NC(=O)c3cc(NC(=O)C4C(c5cc(Cl)cc(Cl)c5)C4(Cl)Cl)ccc3Cl)ccc2s1 (stereo not drawn) [F455, 2-Chloro-5-(trans)-2,2-dichloro-3-(3,5-dichlorophenyl)cyclopropane-1-carboxamido)-N-(2-methylbenzo[d]thiazol-5-yl)benzamide]",50 to 100,A (80-100),50 to 100
"O=C(Nc1ccc2[nH]cnc2c1)c1cc(NC(=O)C2C(c3cc(Cl)cc(Cl)c3)C2(Cl)Cl)ccc1Cl (stereo not drawn) [F456, N-(1H-Benzo[d]imidazol-5-yl)-2-chloro-5-(trans)-2,2-dichloro-3-(3,5-dichlorophenyl)cyclopropane-1-carboxamido)benzamide]",50 to 100,B (More than 0-Less than 80),50 to 100
"Cn1ccc2cc(NC(=O)c3cc(NC(=O)C4C(c5cc(Cl)cc(Cl)c5)C4(Cl)Cl)ccc3Cl)ccc21 (stereo not drawn) [F457, 2-Chloro-5-(trans)-2,2-dichloro-3-(3,5-dichlorophenyl)cyclopropane-1-carboxamido)-N-(1-methyl-1H-indol-5-yl)benzamide]",50 to 100,A (80-100),50 to 100
